The data set in a line: wn = mass fraction of the nth substance listed. The following applies: 313.15 K, 100 kPa, Liquid, Pycnometric method.

For two compounds, mass density results are on record in the NIST ThermoML archive (doi:10.1021/acs.jced.5b00594).

Each structure is given as a SMILES string. ± gives the expanded uncertainty stated by the source.

What is called mass density is the mass of a sample divided by its volume.

For the compound `O=S(=O)([O-])O.[K+]` [hydrogen potassium sulfate] + O=S(=O)(O)O, the mass density (w2 = 0.6151) is listed as 1832 ± 6 kg/m3.

On to `O=S(=O)([O-])O.[K+]` [hydrogen potassium sulfate] + O, for which the mass density (w1 = 0.4722) is 1391 ± 4 kg/m3.
